Measurements reported in patent publication US20190119284A1, “ErbB Inhibitors and Uses Thereof” (The Regents of the University of California, priority 2016, published 2019).
Read-outs that look alike come from different tables or passages of the source.

What was measured:
[1] = Mouse Liver Microsome stability assay; assay type: in vitro ADME; conditions: mouse liver microsomes
[2] = target: 2YF/3wt + NRG Ba/F3 cells (HER2YF/HER3wt) (Homo sapiens, UniProt P04626, Y1005F/Y1023F/Y1112F/Y1127F/Y1139F/Y1196F/Y1221F/Y1222F/Y1248F, cells depend on it); assay: Ba/F3 proliferation assay, 2YF/3wt + NRG; assay type: cell-based; conditions: Tables 7 and 8; read-out: Ba/F3 line IC50, HER2YF/HER3 + NRG
Excerpt: Ba/F3 cells are normally dependent on IL-3 signaling for their proliferation and survival, but can be made dependent on introduced oncogenic signals. We sequentially selected transduced Ba/F3 cells for populations stably expressing HER3 and then HER2. To ensure that all of the proliferative signal could be attributed to HER2/HER3 heterodimers, rather than HER2 homodimers, the 9 C-terminal tyrosines in HER2 were mutated to phenylalanine (HER2YF). We then withdrew IL-3 and supplemented the media with NRG to select for NRG dependent HER2YF/HER3wt cells (2YF/3wt).
For the 2YF/3wt cells, the parental cells were first transduced with HER3 according to the protocol above and were then spun down at 500×g for 5 min and re-suspended in media supplemented with 10 ng/mL IL-3 and 3 μg/mL puromycin (Invitrogen). Cells were maintained in these conditions for seven days, passaging as required. After seven days the cells were spun down, washed with fresh media, and then used for a subsequent round of transduction according to the protocol above with HER2YF virus. […] The cells were maintained in these conditions for seven days, passaging as required. After seven days the cells were spun down, washed with fresh media, and then suspended in media supplemented with 10 ng/mL of NRG. Cells were maintained in these conditions for seven days to select for a NRG dependent population of 2YF/3wt Ba/F3 cells that were then maintained as described above. The same protocol was used for the 2YF-L755S/3wt, 2YF-YVMA/3wt, and 2YF-VC/3wt cell lines using the indicated constructs.
Proliferation Assays. […] The following day media was changed to fresh media that contained either DMSO or the indicated concentration of drug plus NRG (50 ng/mL final concentration) as indicated. […] For all normalized assays, proliferation was normalized to the DMSO control condition. All graphs were plotted in GraphPad Prism 6 and fit with a non-linear regression of the log(inhibitor) vs response with a variable slope where shown. All graphs are averages (+/−standard deviation) of biological triplicates each performed in technical triplicate unless otherwise noted. If only one biological replicate was performed standard deviations were derived from the technical replicates.

Axl+ Ba/F3 cells = target: T1, Axl+ Ba/F3 cells (Homo sapiens, UniProt P30530); assay: Ba/F3 proliferation assay, Axl+; assay type: cell-based; conditions: Tables 7 and 8; read-out: Ba/F3 line IC50, Axl+
T1 sequence (P30530 1-894): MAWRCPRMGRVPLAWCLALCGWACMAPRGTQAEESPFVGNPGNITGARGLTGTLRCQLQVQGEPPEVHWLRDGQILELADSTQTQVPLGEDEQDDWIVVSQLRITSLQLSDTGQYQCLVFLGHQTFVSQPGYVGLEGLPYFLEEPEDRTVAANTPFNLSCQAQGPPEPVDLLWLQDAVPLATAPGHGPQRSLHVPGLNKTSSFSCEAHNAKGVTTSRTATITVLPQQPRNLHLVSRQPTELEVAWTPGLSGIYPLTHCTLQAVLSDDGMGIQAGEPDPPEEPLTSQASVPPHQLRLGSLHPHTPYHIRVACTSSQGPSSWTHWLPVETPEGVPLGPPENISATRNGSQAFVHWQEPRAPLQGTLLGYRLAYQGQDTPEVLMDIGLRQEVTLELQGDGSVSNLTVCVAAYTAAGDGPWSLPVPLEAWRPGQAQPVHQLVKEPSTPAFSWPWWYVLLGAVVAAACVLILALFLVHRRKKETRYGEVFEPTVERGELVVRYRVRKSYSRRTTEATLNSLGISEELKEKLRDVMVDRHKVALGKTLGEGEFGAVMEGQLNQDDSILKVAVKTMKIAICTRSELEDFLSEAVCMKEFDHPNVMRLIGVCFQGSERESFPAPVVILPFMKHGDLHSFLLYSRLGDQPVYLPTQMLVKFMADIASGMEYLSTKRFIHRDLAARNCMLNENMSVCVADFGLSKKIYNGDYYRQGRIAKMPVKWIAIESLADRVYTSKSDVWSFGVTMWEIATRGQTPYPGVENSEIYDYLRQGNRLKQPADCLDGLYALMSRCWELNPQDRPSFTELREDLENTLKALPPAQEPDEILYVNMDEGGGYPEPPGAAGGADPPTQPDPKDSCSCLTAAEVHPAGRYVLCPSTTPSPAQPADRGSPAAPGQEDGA
Method: (§1) To validate the screen and test the effectiveness of counter-screening with either the same 2YF/3wt Ba/F3 cell line or the parental Ba/F3's in the presence of IL-3 to remove cytotoxic primary hits, we first tested a panel of kinase inhibitors with established mechanisms of action.
For Axl+ cells, the transduced cells were spun down at 500×g for 5 min and resuspended in media supplemented with 10 ng/mL IL-3 and 3 μg/mL puromycin (Invitrogen). Cells were maintained in these conditions for 7 days, passaging as required. After 7 days the cells were spun down, washed with fresh media, and then suspended in IL-3 free media. The cells were maintained in these conditions for 2 weeks to select for an IL-3 independent population of Axl+ driven cells.
(§2) Proliferation Assays. For adherent cell lines, cells were plated onto opaque white 96 well plates (Greiner cat #655083) and allowed to adhere overnight. The following day media was changed to fresh media that contained either DMSO or the indicated concentration of drug plus NRG (50 ng/mL final concentration) as indicated. Plates were incubated at 37° C. for 72 h and proliferation was read out using Cell Titer Glo (Promega) according to the manufacturer's protocol. For Ba/F3 cell proliferation, cells, drug dilution, and any necessary growth factors (10 ng/mL IL-3 or 6.25 ng/mL NRG) were combined in a well of a 96 well plate. Plates were incubated at 37° C. for 48 h and proliferation was read out using Cell Titer Glo according to the manufacturer's protocol. For all normalized assays, proliferation was normalized to the DMSO control condition. All graphs were plotted in GraphPad Prism 6 and fit with a non-linear regression of the log(inhibitor) vs response with a variable slope where shown. All graphs are averages (+/−standard deviation) of biological triplicates each performed in technical triplicate unless otherwise noted. If only one biological replicate was performed standard deviations were derived from the technical replicates.

[3] = system: parental Ba/F3 cells + IL-3; assay: Ba/F3 proliferation assay, Parental + IL-3; assay type: cell-based; conditions: Tables 7 and 8, read-out: Ba/F3 line IC50, Parental + IL-3
Method: as §1, §2

HER2+/2VE Ba/F3 line = assay: Ba/F3 proliferation assay, HER2+/2VE; assay type: cell-based; conditions: Tables 7 and 8
Method: as §2

Sequence of 2YF/3wt + NRG Ba/F3 cells (HER2YF/HER3wt) (P04626 whole entry Y1005F/Y1023F/Y1112F/Y1127F/Y1139F/Y1196F/Y1221F/Y1222F/Y1248F): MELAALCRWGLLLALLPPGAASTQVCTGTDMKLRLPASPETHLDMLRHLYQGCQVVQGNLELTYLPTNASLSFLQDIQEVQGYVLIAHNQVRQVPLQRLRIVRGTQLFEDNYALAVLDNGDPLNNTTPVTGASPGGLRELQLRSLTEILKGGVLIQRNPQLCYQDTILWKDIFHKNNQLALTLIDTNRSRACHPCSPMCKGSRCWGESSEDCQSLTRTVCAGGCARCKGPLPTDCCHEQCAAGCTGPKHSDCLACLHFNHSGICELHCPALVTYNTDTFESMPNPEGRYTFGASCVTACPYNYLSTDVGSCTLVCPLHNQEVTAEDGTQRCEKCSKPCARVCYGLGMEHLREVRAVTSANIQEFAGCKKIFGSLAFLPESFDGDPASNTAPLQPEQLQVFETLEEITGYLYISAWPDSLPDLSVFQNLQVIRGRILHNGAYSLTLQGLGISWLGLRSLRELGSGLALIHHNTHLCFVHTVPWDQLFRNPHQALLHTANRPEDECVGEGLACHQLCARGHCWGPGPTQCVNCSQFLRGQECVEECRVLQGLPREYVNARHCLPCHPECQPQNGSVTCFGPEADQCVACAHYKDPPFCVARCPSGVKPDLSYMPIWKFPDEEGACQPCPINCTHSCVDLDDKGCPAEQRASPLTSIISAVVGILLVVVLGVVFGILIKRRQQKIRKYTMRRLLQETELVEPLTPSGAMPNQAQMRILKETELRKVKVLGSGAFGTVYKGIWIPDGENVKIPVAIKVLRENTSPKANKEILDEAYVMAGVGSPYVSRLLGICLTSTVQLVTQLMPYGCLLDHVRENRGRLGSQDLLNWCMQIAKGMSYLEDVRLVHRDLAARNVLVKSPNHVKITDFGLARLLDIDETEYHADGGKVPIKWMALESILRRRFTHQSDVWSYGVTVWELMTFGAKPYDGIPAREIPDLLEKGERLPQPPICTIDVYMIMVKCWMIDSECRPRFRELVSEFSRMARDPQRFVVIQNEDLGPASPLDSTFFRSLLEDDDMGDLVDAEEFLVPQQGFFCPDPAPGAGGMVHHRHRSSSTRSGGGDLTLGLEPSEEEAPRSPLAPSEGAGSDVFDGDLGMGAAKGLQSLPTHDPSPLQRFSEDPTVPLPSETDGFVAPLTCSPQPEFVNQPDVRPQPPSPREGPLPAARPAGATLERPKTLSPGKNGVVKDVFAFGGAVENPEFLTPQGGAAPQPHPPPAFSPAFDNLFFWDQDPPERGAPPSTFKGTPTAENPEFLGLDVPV

| WuXi Microsomal stability (Mouse Extraction Ratio) [1] | GI50 [2] [nM] | GI50 (Axl+ Ba/F3 cells) [nM] | IC50 (HER2+/2VE Ba/F3 line; Mus musculus, BaF3) [nM] | IC50 (HER2+/2VE Ba/F3 line) [nM] | Structure (SMILES) | IC50 ([3]; Mus musculus, BaF3) [nM] | IC50 [3] [nM] |
| --- | --- | --- | --- | --- | --- | --- | --- |
|  | 150 | 506 | 769 |  | CC(=O)c1cccc(-c2n[nH]c3ncnc(Nc4cc(-c5ccccc5)ccc4O)c23)c1 [Cmpd 191A] | 2910 |  |
|  | 376 | 2150 | 1700 |  | COc1ccc(-c2ccccc2)cc1Nc1ncnc2[nH]nc(-c3ccsc3)c12 [Cmpd 191F] | 2510 |  |
|  | > 10000 | > 10000 | > 10000 |  | COc1ccc(C(C)(C)C)cc1Nc1ncnc2[nH]nc(-c3cccc(C(C)=O)c3)c12 [Cmpd 190D] | > 10000 |  |
|  | > 10000 | > 10000 | > 10000 |  | COc1ccc(-c2ccccc2)cc1Nc1ncnc2[nH]nc(-c3ccc(C(C)=O)cc3)c12 [Cmpd 191H] | > 10000 |  |
|  | 86.8 | 171 | 229 |  | COc1cccc(-c2n[nH]c3ncnc(Nc4cc(-c5ccccc5)ccc4OC)c23)c1 [Cmpd 190A] | 450 |  |
|  | 884 | 1010 | 1110 |  | COc1ccc(-c2ccccc2)cc1Nc1ncnc2[nH]nc(-c3ccc(C#N)cc3)c12 [Cmpd 191D] | 1740 |  |
|  | 862 | 643 | 1840 |  | COc1ccc(-c2ccccc2)cc1Nc1ncnc2[nH]nc(-c3ccc4ccccc4c3)c12 [Cmpd 190C] | 1510 |  |

Second part, the compound before the results:

| Structure (SMILES) | WuXi Microsomal stability (Mouse Extraction Ratio) [1] | GI50 [2] [nM] | GI50 (Axl+ Ba/F3 cells) [nM] | IC50 (HER2+/2VE Ba/F3 line; Mus musculus, BaF3) [nM] | IC50 (HER2+/2VE Ba/F3 line) [nM] | IC50 ([3]; Mus musculus, BaF3) [nM] | IC50 [3] [nM] |
| --- | --- | --- | --- | --- | --- | --- | --- |
| COc1ccc(-c2cnccn2)cc1Nc1ncnc2[nH]nc(-c3cc[nH]n3)c12 [compound 8184] | 0.9 |  |  |  |  |  |  |
| FC(F)Oc1ccc(-c2ccccc2)cc1Nc1ncnc2[nH]nc(-c3cc[nH]n3)c12 [compound 8179] | 0.6 |  |  |  |  |  |  |
| c1ccc(-c2cccc(Nc3ncnc4[nH]nc(-c5ccccc5)c34)c2)cc1 [Cmpd 186A] |  | > 10000 | > 10000 | > 10000 |  | > 10000 |  |
| CNC(=O)c1cc(-c2n[nH]c3ncnc(Nc4cc(-c5ccccc5)ccc4OC)c23)cs1 [Cmpd 45F] |  | 739 | 535 | 1020 |  | > 10000 |  |
| COc1ccc(-c2ccccc2)cc1Nc1ncnc2[nH]nc(-c3cccs3)c12 [Cmpd 45B] |  | 745 | 4030 | 3610 |  | > 10000 |  |
| COc1ccc(-c2n[nH]c3ncnc(Nc4cc(-c5ccccc5)ccc4OC)c23)cc1 [Cmpd 189B] |  | > 10000 | > 10000 |  | > 10000 |  | > 10000 |
| COc1ccc(-c2ccco2)cc1Nc1ncnc2[nH]nc(-c3ccco3)c12 [55A] |  | 39.5 | > 3330 | 908 |  | > 10000 |  |
| COc1ccc(-c2ccccc2)cc1N(C)c1ncnc2[nH]nc(-c3ccsc3)c12 [Cmpd 43] |  | > 3330 | > 3330 | > 3330 |  | > 3330 |  |
| COc1ccc(-c2ccc(C)cc2)cc1Nc1ncnc2[nH]nc(-c3ccsc3)c12 [Cmpd 39C] |  | > 10000 | > 10000 | > 10000 |  | > 10000 |  |
| COc1ccc(-c2ccoc2)cc1Nc1ncnc2[nH]nc(-c3ccco3)c12 [Cmpd 57A] |  | 21 | > 10000 | 460 |  | > 10000 |  |
| COc1ccc(-c2ccccc2)cc1Nc1ncnc2[nH]nc(-c3ccoc3)c12 [Cmpd 13] |  | 839 | 2960 | 3400 |  | > 10000 |  |
| COc1ccc(N2CCOCC2)cc1Nc1ncnc2[nH]nc(-c3ccsc3)c12 [Cmpd 41A] |  | > 3330 | > 10000 | > 10000 |  | > 10000 |  |
| CC(=O)c1cccc(-c2n[nH]c3ncnc(Nc4cccc(-c5ccccc5)c4)c23)c1 [Cmpd 186B] |  | > 10000 | > 10000 | > 10000 |  | > 10000 |  |
| COc1ccc(-c2ccccc2)cc1Nc1ncnc2[nH]nc(-c3ccc[nH]3)c12 [Cmpd 45C] |  | 952 | > 3330 | > 3330 |  | > 10000 |  |
| COc1ccc(-c2ccccc2)cc1Nc1ncnc2[nH]nc(-c3cccc(C(C)=O)c3)c12 [compound 185, 1-(3-(4-((4-methoxy-[1,1′-biphenyl]-3-yl)amino)-1H-pyrazolo[3,4-d]pyrimidin-3-yl)phenyl)ethanone] |  | 148 | 257 | 243 |  | 1490 |  |
| CC(=O)c1cccc(-c2n[nH]c3ncnc(Nc4cc(-c5ccccc5)ccc4C)c23)c1 [Cmpd 5-001A] |  | > 3330 | > 3330 | > 3330 |  | > 10000 |  |
| COc1ccc(-c2ccoc2)cc1Nc1ncnc2[nH]nc(-c3cn[nH]c3)c12 [Cmpd 57B] |  | 12.6 | > 10000 | 82.9 |  | > 10000 |  |
| COc1ccc(-c2ccccc2)cc1Nc1ncnc2[nH]nc(-c3cn[nH]c3)c12 [Cmpd 45E] |  | 53 | > 10000 | 1350 |  | > 10000 |  |
| COc1ccc(-c2ccccc2)cc1Nc1ncnc2[nH]ncc12 [Cmpd 5-004] |  | 2590 | 6940 | 3150 |  | > 3330 |  |
| COc1ccc(-c2cccc(C)c2)cc1Nc1ncnc2[nH]nc(-c3ccsc3)c12 [Cmpd 39B] |  | > 3330 | 1760 | > 3330 |  | > 3330 |  |
| COc1ccc(-c2ccccc2)cc1Nc1ncnc2[nH]nc(-c3cccc(C(N)=O)c3)c12 [Cmpd 45D] |  | 270 | 880 | 869 |  | 3010 |  |
